This is an account of results in patent publication EP1632557B1, “Novel alkaline cellulases” (Novozymes A/S, priority 1994, dated 1995).

The Km is the substrate concentration at which the rate is half of its maximum.

Data set [1] deals with T1, EG I' from Fusarium oxysporum (Figure 4) (Fusarium oxysporum, UniProt P46237).
T1 sequence (P46237 19-429): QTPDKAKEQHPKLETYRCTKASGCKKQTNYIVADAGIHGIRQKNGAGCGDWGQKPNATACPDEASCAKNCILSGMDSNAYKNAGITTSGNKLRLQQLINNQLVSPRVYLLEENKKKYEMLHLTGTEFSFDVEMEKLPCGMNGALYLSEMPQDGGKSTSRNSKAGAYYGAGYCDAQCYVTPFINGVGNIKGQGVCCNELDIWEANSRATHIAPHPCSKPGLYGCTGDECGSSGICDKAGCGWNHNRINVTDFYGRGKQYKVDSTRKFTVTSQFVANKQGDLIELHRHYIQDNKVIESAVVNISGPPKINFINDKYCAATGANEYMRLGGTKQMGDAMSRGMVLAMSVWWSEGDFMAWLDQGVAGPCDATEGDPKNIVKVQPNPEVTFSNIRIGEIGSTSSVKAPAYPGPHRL
As to the kind of experiment: Cellulase activity on cellotriose (coupled glucose oxidase/peroxidase/ABTS assay). As to conditions: pH 8,5 and 40°C; calculated from a Lineweaver-Burk plot.

Substrate in data set [2]: OC[C@H]1O[C@@H](O[C@H]2[C@H](O)[C@@H](O)[C@H](O[C@H]3[C@H](O)[C@@H](O)C(O)O[C@@H]3CO)O[C@@H]2CO)[C@H](O)[C@@H](O)[C@@H]1O
The experiment in a line: purified protein, by the assay type. As to conditions: other: substrate cellotriose, pH 8,5 and 40°C, calculated from a Lineweaver-Burk plot, pH 8.5.

`OC[C@H]1O[C@@H](O[C@H]2[C@H](O)[C@@H](O)[C@H](O[C@H]3[C@H](O)[C@@H](O)C(O)O[C@@H]3CO)O[C@@H]2CO)[C@H](O)[C@@H](O)[C@@H]1O` (some centres unmarked) [cellotriose]: the “catalytic activity on cellotriose (Kcat)” value in data set [1] is recorded as 5,5 pr. sec.

B1: EG I' from Fusarium oxysporum (Figure 4) (Fusarium oxysporum) (protein)
chain: T1 sequence (P46237 19-429)
Take B1: in data set [2], the Km is on record as 0.5 mM.
